Data as given in patent publication US11840686B2, “Modulation of prekallikrein (PKK) expression” (Ionis Pharmaceuticals, Inc., priority 2013, dated 2023).
Strand notation (5' to 3'): a small letter for the sugar, then the base; units joined by * are phosphorothioate-linked, units joined directly phosphodiester-linked; [ ] holds rarer units or linkages, { } end groups; capitals alone tell only the bases. e = 2'-O-(2-methoxyethyl) (MOE); [5mC] = 5-methylcytosine; d = 2'-deoxy (DNA)

Assays:
human PKK mRNA [1] = experiment: Antisense inhibition of human PKK mRNA in HepaRG cells, 3,000 nM (Example 1); type: cell-based; conditions: relative to untreated control cells
Summary of the method: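 HepaRG cells, 20,000 per well, were electroporated with 3,000 nM 5-10-5 MOE gapmer (phosphorothioate, 5-methylcytosine). After about 24 h, PKK mRNA was measured by qRT-PCR with primer probe set RTS3454 and normalised to RIBOGREEN total RNA. Values are percent inhibition versus untreated cells.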

human PKK mRNA [2] = experiment: Dose-dependent antisense inhibition of human PKK in HepaRG cells, 0.12-10.00 uM (Example 4); type: cell-based; conditions: electroporation, ~16 h
Procedure: Cells were plated at a density of 20,000 cells per well and transfected using electroporation with 0.12 μM, 0.37 μM, 1.11 μM, 3.33 μM, and 10.00 μM concentrations of antisense oligonucleotide. After a treatment period of approximately 16 hours, RNA was isolated from the cells and PKK mRNA levels were measured by quantitative real-time PCR. Human PKK primer probe set RTS3454 was used to measure mRNA levels. PKK mRNA levels were adjusted according to total RNA content, as measured by RIBOGREEN®. The antisense oligonucleotides were tested in a series of experiments that had similar culture conditions. Results are presented as percent inhibition of PKK, relative to untreated control cells.
The half maximal inhibitory concentration (IC50) of each oligonucleotide is also presented.

[3] = Table 1, PKK mRNA, HepaRG cells, 3,000 nM, electroporation, ~24 h

| Substance | % inhibition (human PKK mRNA [1]; Table 4, HepaRG cells, electroporation with 3,000 nM antisense oligonucleotide, approx. 24 hours, PKK mRNA by RT-PCR (RTS3454)) | percent inhibition of PKK at 0.12 μM (human PKK mRNA [2]; Table 33, 0.12 μM) | percent inhibition of PKK at 0.37 μM (human PKK mRNA [2]; Table 33, 0.37 μM) | percent inhibition of PKK at 1.11 μM (human PKK mRNA [2]; Table 33, 1.11 μM) | percent inhibition of PKK at 3.33 μM (human PKK mRNA [2]; Table 33, 3.33 μM) | percent inhibition of PKK at 10.00 μM (human PKK mRNA [2]; Table 33, 10.00 μM) | IC50 (human PKK mRNA [2]; Table 33, PKK mRNA) | % inhibition (human PKK mRNA [1]; [3]) | percent inhibition of PKK at 0.12 μM (human PKK mRNA [2]; Table 32, 0.12 μM) | percent inhibition of PKK at 0.37 μM (human PKK mRNA [2]; Table 32, 0.37 μM) | percent inhibition of PKK at 1.11 μM (human PKK mRNA [2]; Table 32, 1.11 μM) | percent inhibition of PKK at 3.33 μM (human PKK mRNA [2]; Table 32, 3.33 μM) | percent inhibition of PKK at 10.00 μM (human PKK mRNA [2]; Table 32, 10.00 μM) | IC50 (human PKK mRNA [2]; Table 32, PKK mRNA) |
| --- | --- | --- | --- | --- | --- | --- | --- | --- | --- | --- | --- | --- | --- | --- |
| 531232 (e[5mC]*eT*eG*eT*eA*d[5mC]*dT*dA*dG*dT*dT*dT*d[5mC]*d[5mC]*dT*eA*eT*eA*eA*e[5mC]; antisense) [compound 531232] | 85% | 15% | 26% | 40% | 62% | 76% | 1700 nM |  |  |  |  |  |  |  |
| 530970 (antisense eT*eT*eG*eG*eT*dG*dT*dG*d[5mC]*d[5mC]*dA*d[5mC]*dT*dT*dT*e[5mC]*eA*eG*eA*eT) [compound 530970] |  |  |  |  |  |  |  | 74% | 1% | 0% | 66% | 76% | 84% | 1000 nM |
| 530967 (antisense e[5mC]*eA*eA*e[5mC]*e[5mC]*dA*dA*dT*dT*dT*d[5mC]*dT*dG*dA*dA*eA*eG*eG*eG*e[5mC]) [compound 530967] |  |  |  |  |  |  |  | 69% | 30% | 36% | 48% | 82% | 91% | 700 nM |
| 531004 (eA*eG*eA*eG*eT*dA*dA*d[5mC]*d[5mC]*dA*dG*dA*dG*d[5mC]*dT*e[5mC]*e[5mC]*e[5mC]*eT*eT; antisense) [compound 531004] |  |  |  |  |  |  |  | 76% | 0% | 14% | 25% | 71% | 84% | 2100 nM |
